Laboratory results from patent US12005096B2, “Apoaequorin and vitamin d-containing compositions and methods of using same” (QUINCY BIOSCIENCE, LLC, priority 2016, dated 2024).
Read-outs that look alike come from different tables or passages of the source.

Experiments:
[1] = test system: rat hippocampal brain slices; experiment: Neuroprotection in rat hippocampal brain slices after oxygen glucose deprivation (OGD); format: in vivo; settings: 5-min OGD; AQ by direct hippocampal injection; vitamin D in diet 0.0125 mg/kg for ~10 days; preliminary results
[2] = not given; remark: listed apart in the source
[3] = not given; remark: listed apart in the source
[4] = apoaequorin 10 mg daily, N=56, eight days to 30 days

Substance: apoaequorin
- cell death (dead and dying, blue stained cells) after OGD [1]: few er dead and dying cells
- overall quality of sleep, energy, mood, pain, general health (change from baseline of scores) (32 patients, 90 day period, open-label): increase
- participants discontinued the study due to an adverse event (in vivo): No participants discontinued the study due to an adverse event
- memory performance (memory screening tool) ([2]; 56 participants, day 8 and day 30): improved memory performance as early as eight days but with statistically greater improvement at day 30
- memory improvement ([2]; apoaequorin 10 mg daily, 56 participants, after 30 days): statistically significant improvement in memory
- participants with improvement in general memory [2, 4]: 57%
- participants with improvement in remembering driving directions [2, 4]: 84%
- participants with improvement in retaining information [2, 4]: 51%
- participants with improvement in word recall [2, 4]: 66%
- participants discontinued the study due to an adverse event ([2]; in vivo): No participants discontinued the study due to an adverse event
- participants with an increase in cognitive ability ([3]; 32 patients, 90 days): Greater than 51%
- cognition (standardized cognitive battery) ([3]; 32 patients, day 8, 30, 60-90): improved cognition as early as eight days but with statistically greater improvement at day 30, as well as 60-90
- participants discontinued the study due to an adverse event ([3]; in vivo): No participants discontinued the study due to an adverse event

Substance: vitamin D [reference compound]
- cell death (dead and dying, blue stained cells) after OGD [1]: fewer dead or dying cells
